US8372879B2, “4-(heterocycloalkyl) benzene-1,3-diol compounds as tyrosinase inhibitors, process for the preparation thereof and use thereof in human medicine and also in cosmetics” (Galderma Research & Development, priority 2008, dated 2013)

Legend:
[1] = system: MNT1 human melanoma cells; experiment: Melanogenesis inhibition assay (14C-thiouracil incorporation standardized through 3H-leucine); format: cell-based; settings: MNT-1, incubation for 24 h, 14C incorporation standardized through 3H incorporation
Method: (§1) The inhibition of melanogenesis is measured in MNT1 human melanoma cells according to a protocol adapted from Reigner et al., Cell Mol Biol (1999) 45: 969-980. The assay is based on the concomitant incorporation of 2 radiolabelled tracers: ^14C-thiouracil is incorporated into the neosynthesized melanin and reflects melanogenesis, whereas ^3H-leucine is incorporated into the proteins and reflects cell viability and, consequently, the toxicity of the compounds tested.
(§2) The MNT1 cells are seeded into 96-well plates in the presence of the test compounds and of the radio-isotopes. After incubation for 24 h at 37° C., the cells are washed and the amount of the 2 radioisotopes is measured. The test compounds are evaluated in terms of dose-response so as to calculate an IC50 for inhibition of melanogenesis on the basis of the ^14C incorporation which is standardized through the ^3H incorporation. An IC50 for cell toxicity is also calculated on the basis of the ^3H incorporation.

[2] = Cell toxicity (3H-leucine incorporation) in melanogenesis assay; format: cell-based; settings: human, MNT1 human melanoma cells, incubation for 24 h
Method: as §1, §2

tyrosinase = molecular target: T1, tyrosinase (Mus musculus, UniProt P11344); experiment: Tyrosinase activity inhibition assay (B16F1 cell lysate, L-tyrosine/MBTH, 520 nm); format: biochemical, murine; settings: lysate of B16F1 cells, 6 hours of incubation at 37° C.; read-out: Tyrosine hydroxylase/Dopa oxidase IC50
T1 construct: the supernatant obtained constitutes the cell lysate used as tyrosinase source in the enzymatic assay; endogenous in cells; host or cells: B16F1 murine melanoma cells, stimulated with alpha-MSH; detergent/ultrasound lysate supernatant
T1 sequence (P11344 19-533): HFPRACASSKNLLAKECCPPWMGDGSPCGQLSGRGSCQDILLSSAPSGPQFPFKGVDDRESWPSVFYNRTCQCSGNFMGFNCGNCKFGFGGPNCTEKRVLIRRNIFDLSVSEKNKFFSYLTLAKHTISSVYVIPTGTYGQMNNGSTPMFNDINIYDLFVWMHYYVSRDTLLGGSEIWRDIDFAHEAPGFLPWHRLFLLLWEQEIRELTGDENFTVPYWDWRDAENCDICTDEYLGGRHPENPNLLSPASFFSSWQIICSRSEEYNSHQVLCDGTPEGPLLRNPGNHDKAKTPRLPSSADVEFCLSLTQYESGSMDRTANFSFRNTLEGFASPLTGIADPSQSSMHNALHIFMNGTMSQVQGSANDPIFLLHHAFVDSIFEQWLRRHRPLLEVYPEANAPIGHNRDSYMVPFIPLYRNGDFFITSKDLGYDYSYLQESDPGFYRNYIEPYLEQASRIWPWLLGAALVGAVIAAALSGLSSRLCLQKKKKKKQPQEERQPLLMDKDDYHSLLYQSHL
Method: The activity of the inhibitors is measured using a lysate of B16F1 cells (murine melanoma line). In the presence of the L-tyrosine substrate, the tyrosinase present in these cells catalyses the hydroxylation of L-tyrosine to give L-DOPA and then the oxidation of the L-DOPA to give dopaquinone. In the presence of MBTH (3-methyl-2-benzothiazolinone hydrazone), the dopaquinone is trapped so as to form a pink complex which absorbs at 520 nm.
The B16F1 cells are cultured in DMEM medium+10% foetal calf serum+10^−9M α-MSH for 4 days at 37° C. under 7% CO2. They are treated with trypsin, washed in PBS, counted and pelleted. The pellet is taken up at 10^7 cells/ml in lysis buffer (10 mM sodium phosphate, pH 6.8-1% Igepal) and the suspension is treated with ultrasound for 10 seconds. After centrifugation for 30 minutes at 4000 rpm, the supernatant obtained constitutes the cell lysate used as tyrosinase source in the enzymatic assay.
The assays are carried out in duplicate in 384-well plates in a total volume of 50 μl. […]
The plate is incubated at 37° C. and a spectro-photometric reading is carried out at 520 nm after 6 hours of incubation. In order to avoid any possible absorption of the products, the system uses corrected absorbance (absorbance at time 6 h—absorbance at time zero). […]

| IC50 [1] | IC50 (tyrosinase) | Compound | IC50 at 24 h [2] |
| --- | --- | --- | --- |
| 15 µM |  | CCCCc1ccc(O)cc1O [4-butylresorcinol (Rucinol), 4-butylresorcinol, reference compound] | 55 µM |
|  | 400 nM | Oc1ccc(C2CCSCC2)c(O)c1 [Compound 2, 4-(tetrahydrothiopyran-4-yl)benzene-1,3-diol] |  |
| 1 µM | 100 nM | Oc1ccc(C2CCOCC2)c(O)c1 [Compound 1, 4-(tetrahydropyran-4-yl)benzene-1,3-diol] | > 999 µM |
